Several values for one entry are separate records, joined by “and”; a condition that tells them apart may be missing. Equal entries are not always repeated. Where two headings read alike, the source gives them in different places.
Test system: BT474-TxR cells
Assay: SRB cell viability assay, Herceptin-resistant BT474-TxR cells
Assay type: cell-based, human
Conditions: for viability at 0.001 µM / viability at 0.02 µM / viability at 0.067 µM / viability at 0.2 µM / viability at 0.67 µM / viability at 2 µM / viability at 6.7 µM / viability at 20 µM / IC50: Homo sapiens; for viability at 0.001 µM / viability at 0.02 µM / viability at 0.067 µM / viability at 0.2 µM / viability at 0.67 µM / viability at 2 µM / viability at 6.7 µM / viability at 20 µM / mean A at 565 nm: 72 h; for viability at 6.7 µM: Lapatinib 6.7 μM; for viability at 20 µM: Lapatinib 20 μM; for IC50: lapatinib, BT474-TxR
[1] = no LGT-E pre-treatment (control to Table 28)
[2] = no LGT-E pre-treatment (control to Table 30)
[3] = pre-treated with 25 μg/ml LGT-E

Method: PC3-TxR cells were plated into sterile, F-bottom Cellstar® 96 well cell culture plates with lids (Cat #655180, Purchased from Greiner Bio-one, Monroe, N.C.) by placing into each well, 100 μl of medium containing 3000 cells in RPMI 1640 supplemented with 10% fetal bovine serum (Thermo Scientific, Logan, Utah) and a solution of penicillin (100 U/ml) and streptomycin (100 μg/ml) (Life Technologies Grand Island, N.Y.). The cells were at passage 52 at the time of plating. Triplicate wells were assigned to each experimental condition tested, and a 24 hour recovery period for the cells following the seeding of the wells was allowed. During the recovery period, the cells were incubated at 37° C. and 5% CO2.
The LGT-E was prepared by adding an appropriate amount of LGT-E powder to DMSO to form a 500 mg/ml stock solution. The stock solution was alternately vortexed and sonicated until the LGT-E powder went into solution. The stock solution was diluted in RPMI 1640 medium (Mediatech, Manassas, Va., or Life Technologies Grand Island, NY) to reach the desired concentrations of LGT-E (e.g., 12, 25, or 60 μg/ml).
Pretreatment of the cells with LGT-E was carried out by aspirating the media from the wells, followed by adding 50 μl of LGT-E solution containing concentrations of either 12 or 25 μg/ml of LGT-E solution and incubation of the cells for two hours under conditions of 37° C. and 5% CO2.
Media was aspirated from each well, and replaced with a 10% solution of cold trichloroacetic acid (TCA) (Cat #: T6399, purchased from Sigma-Aldrich), and incubated for one hour at 4° C. After the TCA incubation, the TCA solution was aspirated, and the cells were washed five times with tap water. After removing the last wash, the plates were left with lids off at room temperature until the surfaces were dry, which took one to two hours. Then 50 μl of a 0.4% solution of sul-forhodamine B (SRB) sodium salt (Cat #: S9012, purchased from Sigma-Aldrich) was added to each well and the plates were incubated at room temperature for 20 to 30 minutes. Afterwards, the wells were washed five times with a 1% acetic acid solution in 10 mM TRIS base (Cat#: 161-0719, purchased from Bio-Rad Laboratories, Hercules, Calif.). The plates were subsequently left to dry for several hours or overnight. SRB that remained in the dried wells was solubilized by adding 100 μl of SRB solubilization solution (10 mM TRIS base) to each well, and placing the plates either on a gently-moving shaker or letting the plates remain stationary at room temperature until the SRB dissolves, which takes about five to ten minutes. The amount of SRB in each well, which correlated directly to the number of living cells at fixation, was determined spectrophotometrically at an absorbance of 565 nm by a microplate reader.

CS(=O)(=O)CCNCc1ccc(-c2ccc3ncnc(Nc4ccc(OCc5cccc(F)c5)c(Cl)c4)c3c2)o1 [lapatinib]
viability at 0.001 µM (Lapatinib 0.001 μM, no LGT-E pre-treatment (control to Table 28)): 100%
viability at 0.001 µM (Lapatinib 0.001 μM, no LGT-E pre-treatment (control to Table 30)): 100%
viability at 0.001 µM (Lapatinib 0.001 μM, pre-treated with 25 μg/ml LGT-E): 100%
viability at 0.001 µM (Lapatinib 0.001 μM, pre-treated with […] LGT-E): 100%
viability at 0.02 µM (Lapatinib 0.02 μM, no LGT-E pre-treatment (control to Table 28)): 97.3%
viability at 0.02 µM (Lapatinib 0.02 μM, no LGT-E pre-treatment (control to Table 30)): 82.6%
viability at 0.02 µM (Lapatinib 0.02 μM, pre-treated with 25 μg/ml LGT-E): 85.8%
viability at 0.02 µM (Lapatinib 0.02 μM, pre-treated with […] LGT-E): 94%
viability at 0.067 µM (Lapatinib 0.067 μM, no LGT-E pre-treatment (control to Table 28)): 97.6%
viability at 0.067 µM (Lapatinib 0.067 μM, no LGT-E pre-treatment (control to Table 30)): 91.8%
viability at 0.067 µM (Lapatinib 0.067 μM, pre-treated with 25 μg/ml LGT-E): 77.3%
viability at 0.067 µM (Lapatinib 0.067 μM, pre-treated with […] LGT-E): 91.3%
viability at 0.2 µM (Lapatinib 0.2 μM, no LGT-E pre-treatment (control to Table 28)): 84.7%
viability at 0.2 µM (Lapatinib 0.2 μM, no LGT-E pre-treatment (control to Table 30)): 76.9%
viability at 0.2 µM (Lapatinib 0.2 μM, pre-treated with 25 μg/ml LGT-E): 67.9%
viability at 0.2 µM (Lapatinib 0.2 μM, pre-treated with […] LGT-E): 70.9%
viability at 0.67 µM (Lapatinib 0.67 μM, no LGT-E pre-treatment (control to Table 28)): 68.7%
viability at 0.67 µM (Lapatinib 0.67 μM, no LGT-E pre-treatment (control to Table 30)): 70.5%
viability at 0.67 µM (Lapatinib 0.67 μM, pre-treated with 25 μg/ml LGT-E): 57.4%
viability at 0.67 µM (Lapatinib 0.67 μM, pre-treated with […] LGT-E): 59.9%
viability at 2 µM (Lapatinib 2 μM, no LGT-E pre-treatment (control to Table 28)): 65.2%
viability at 2 µM (Lapatinib 2 μM, no LGT-E pre-treatment (control to Table 30)): 60.6%
viability at 2 µM (Lapatinib 2 μM, pre-treated with 25 μg/ml LGT-E): 50.4%
viability at 2 µM (Lapatinib 2 μM, pre-treated with […] LGT-E): 53.5%
viability at 6.7 µM [1]: 59.4%
viability at 6.7 µM [2]: 55.1%
viability at 6.7 µM [3]: 37.1%
viability at 6.7 µM (pre-treated with […] LGT-E): 46.3%
viability at 20 µM [1]: 52.3%
viability at 20 µM [2]: 43.8%
viability at 20 µM [3]: 24.9%
viability at 20 µM (pre-treated with […] LGT-E): 40.6%
IC50 (LGT-E 25 μg/ml pre-treatment, read-out: IC50 of drug when cells pre-treated with Chemosensitizing Agent before drug treatment): 2 µM and 1.16 µg/mL
IC50 (line of LGT-E 25 μg/ml, read-out: IC50 of drug when cells treated with drug only): 11 µM and 6.39 µg/mL
mean A at 565 nm (Lapatinib 0.001 μM, no LGT-E pre-treatment (control to Table 28), background = 0.045): 1.135
mean A at 565 nm (Lapatinib 0.001 μM, no LGT-E pre-treatment (control to Table 30), background = 0.047): 1.176
mean A at 565 nm (Lapatinib 0.001 μM, pre-treated with 25 μg/ml LGT-E, background = 0.047): 0.957
mean A at 565 nm (Lapatinib 0.001 μM, pre-treated with […] LGT-E, background = 0.045): 0.997
mean A at 565 nm (Lapatinib 0.02 μM, no LGT-E pre-treatment (control to Table 28), background = 0.045): 1.104
mean A at 565 nm (Lapatinib 0.02 μM, no LGT-E pre-treatment (control to Table 30), background = 0.047): 0.971
mean A at 565 nm (Lapatinib 0.02 μM, pre-treated with 25 μg/ml LGT-E, background = 0.047): 0.821
mean A at 565 nm (Lapatinib 0.02 μM, pre-treated with […] LGT-E, background = 0.045): 0.937
mean A at 565 nm (Lapatinib 0.067 μM, no LGT-E pre-treatment (control to Table 30), background = 0.047): 1.079
mean A at 565 nm (Lapatinib 0.067 μM, pre-treated with 25 μg/ml LGT-E, background = 0.047): 0.740
mean A at 565 nm (Lapatinib 0.067 μM, pre-treated with […] LGT-E, background = 0.045): 0.911
mean A at 565 nm (Lapatinib 0.2 μM, no LGT-E pre-treatment (control to Table 28), background = 0.045): 0.961
mean A at 565 nm (Lapatinib 0.2 μM, no LGT-E pre-treatment (control to Table 30), background = 0.047): 0.905
mean A at 565 nm (Lapatinib 0.2 μM, pre-treated with 25 μg/ml LGT-E, background = 0.047): 0.650
mean A at 565 nm (Lapatinib 0.2 μM, pre-treated with […] LGT-E, background = 0.045): 0.707
mean A at 565 nm (Lapatinib 0.67 μM, no LGT-E pre-treatment (control to Table 28), background = 0.045): 0.780
mean A at 565 nm (Lapatinib 0.67 μM, no LGT-E pre-treatment (control to Table 30), background = 0.047): 0.829
mean A at 565 nm (Lapatinib 0.67 μM, pre-treated with 25 μg/ml LGT-E, background = 0.047): 0.549
mean A at 565 nm (Lapatinib 0.67 μM, pre-treated with […] LGT-E, background = 0.045): 0.598
mean A at 565 nm (Lapatinib 2 μM, no LGT-E pre-treatment (control to Table 28), background = 0.045): 0.739

From US10149876B2, “Tripterygium wilfordii extracts to overcome chemotherapy resistance” (WESTERN UNIVERSITY OF HEALTH SCIENCES, priority 2012, dated 2018)
